This is an account of results in patent publication US8076318B2, “Caged ligands and uses thereof” (priority 2002, dated 2011).

Data set [1] concerns EcR/RXR. Put plainly: Time-dependent luciferase assays after photolysis, with or without washing out extracellular ligand. The class given is cell-based. The procedure:
Time-dependent luciferase assays. 293T cells were split in a 24-well culture plate (Becton Dickinson Labware, lot #353047) and were transfected by a calcium phosphate method. The cells in 500 μL culture medium were incubated with either 100 μM caged β-ecdysone, 100 μM β-ecdysone, or absent an ecdysteroid ligand. After the cells were incubated with caged β-ecdysone for 16 hours, the medium was removed and washed with PBS once. A fresh medium free of ligand was then immediately added just prior to UV light exposure for 1 min. In the “Caged+hv” experiment, the caged β-ecdysone ligand remained in the medium and these cells were likewise illuminated for 1 min. Cells that were not exposed to ecdysteroid ligand were treated in an otherwise analogous fashion. The cells were then returned to the incubator for various time intervals. Incubation was terminated by treating cells with an extraction buffer (1% Triton X-100 and 1 mM DTT in GME). Luciferase activity was preformed as described above.
Cells were pre-incubated with the caged β-ecdysone 4 for 16 hr, illuminated for 1 min, and then lysed at various time points following photolysis. […] The 293T cell line was pre-incubated with 4 for 16 hr, the media subsequently removed, and the cells washed with PBS. Ecdysone-free media was then added, the cell culture incubated for various time points, and tested for luciferase activity. The gene expression kinetic profile is nearly identical for the two sets of experiments [(4+photolysis) versus (4+washing+photolysis)] during the first 5 hr, which is consistent with the notion that caged β-ecdysone 4 is intracellularly liberated (FIG. 3).
What is the time-dependence of β-ecdysone-induced luciferase expression? We addressed this question by pre-incubating 293T cells with the caged derivative 4 for 16 hr followed by illumination for 1 min. Cells were subsequently incubated for various time intervals, lysed, and luciferase activity assessed. […]

Data set [2] is described as follows: Photolysis of caged β-ecdysone 4, HPLC analysis and ferrioxalate actinometry. The note with it: ferrioxalate actinometry, HPLC peak areas. The class given is physicochemical. As to the method: Photolysis of Caged β-ecdysone 4. A 500 μL 100 μM solution of 4 in 2% methanol/98% water was placed in a 24-well culture plate. Photolysis was performed using an Oriel 200 W Hg arc lamp (model 6283) with a 348 nm filter (Oriel, lot number 51260; 50% internal transmittance at 348 nm and cutoff at 325 nm) to remove short wavelength light and an IR filter to remove heat. Aliquots of 10 μL were removed at different time points of photolysis and were analyzed by analytical HPLC (monitored at 242 nm) employing a Vydac C4 (250 mm×3.0 mm) column and using the following solvent system: a linear gradient from 95% A (water):5% B (acetonitrile) to 50% A (water):50% (acetonitrile) over 15 min followed by 50% A (water):50% B (acetonitrile) for 5 min with flow rate at 1 mL/min.
Photoconversion of Caged β-Ecdysone 4 to β-Ecdysone 1. A preliminary assessment of the light-induced conversion of the caged analog 4 to β-ecdysone 1 was performed using a 24-well plate system. […] Aliquots from the wells were subsequently analyzed by HPLC to assess formation of 1 (data not shown). […] The photochemical quantum yield (φ=0.034) was determined using ferrioxalate actinometry (Hatchard & Parker, 1956) according to the equation φ=ΔP/(I×t), where t is the irradiation time, ΔP is the amount of photolabile converted, and was determined using HPLC peak areas.

The test system of data set [3] is EcR/RXR. Put plainly: Immunodetection of intracellularly expressed luciferase, spot illumination. The class given is cell-based. The note with it: 293T cells; for Luciferase expression by immunofluorescence, without illumination: 100 μM, 16 hr incubation, no light; for Luciferase expression by immunofluorescence after spot illumination: 4 washed out, spot illuminated (~0.25 mm^2) 10 sec, 6 hr incubation. As to the method:
Immunodetection of Intracellularly Expressed Luciferase. 293T cells were transferred to the individual wells of a 24-well culture plate (Becton Dickinson Labware, lot #353047) and transfected as described above. The cells were then incubated with either 100 μM β-ecdysone or 100 μM caged β-ecdysone for 16 hr. The medium was removed and the cells washed once with PBS before addition of an ecdysteroid free medium. The surface of the pre-scored wells was spot illuminated (˜0.25 mm^2) for 10 sec on a light microscope using a 100 W Hg-Arc lamp through an Olympus UAPO 20×/0.40 objective. The cells were then incubated for 6 hr, fixed with 4% formaldehyde in PBS for 60 min, washed with PBS 3×5 min, permeabilized with 0.1% TritonX100 for 10 min, washed with PBS 3×5 min, and blocked with 1% normal donkey serum (Jackson ImmunoResearch catalog #017-000-121) in PBS for 45 min. The cells were subsequently exposed to 300 μL of anti-luciferase pAb (polyclonal goat antibody, Promega, lot #149040) at a concentration of 40 μg/mL in 1% donkey serum in PBS. After incubation for 2 hr at room temperature in a humidified chamber, the cells were washed with PBS 3×15 min and exposed to 300 μL of an Alexa Fluor 568-labeled rabbit anti-goat IgG (20 μg/mL in 1% donkey serum/PBS for 1 hr, Molecular Probes, catalog #A-11079). Unbound antibody was removed by washing with PBS 3×15 min and the cells treated with 300 μL of mounting medium (N-propyl gallate at 6 mg/mL in 1:1 glycerol:PBS). Images were taken using an Olympus IX-70 microscope equipped with a CCD camera.
Light-Driven Spatially-Discrete Luciferase Expression in Transiently Transfected 293T Cells. We examined whether the combination of 4 and spot illumination induces gene activation in a spatially discrete fashion. Transiently transfected 293T cells were incubated with 1 for 16 hr, fixed, permeabilized, exposed to a luciferase antibody, and stained with an Alexa-labeled secondary antibody. […] 293T cells were also exposed to 4, the media replaced with fresh media to remove extracellular 4, and spot illuminated (˜0.25 mm^2) for 10 sec. The cells were then returned to the incubator for 6 hr and subsequently analyzed for luciferase expression.
However, if photo-uncaged intracellular β-ecdysone does migrate to the extracellular environment then it is possible that sites distant from the region of illumination could undergo unintentional gene activation as well. On the other hand, given the small intracellular volume of a typical cell (˜1 pL) it is likely that any uncaged β-ecdysone that escapes from its intracellular locale will be too dilute to effect changes in gene expression profiles at remote sites. We explicitly addressed this possibility by examining spatially-discrete gene activation using spot illumination of cultured 293T cells. Luciferase expression in fixed and permeabilized cells was visually identified via the coupled use of a luciferase antibody and a secondary Alexa-labeled antibody. […] Luciferase expression is not observed in the absence of β-ecdysone (data not shown) nor in the presence of caged β-ecdysone without light (see below). […] Regions outside of the zone of illumination fail to display luciferase expression.

Data set [4] concerns EcR/RXR. The data set can be described thus: Luciferase expression in transiently transfected 293T cells with and without 1 min illumination. The class given is cell-based. Particulars: for Fold luciferase induction / Activity as inducing agent in the luciferase-based gene expression system (in words): 293T cells; for Fold luciferase induction: culture media/2% MeOH; for Activity as inducing agent in the luciferase-based gene expression system (in words): without light. From the text: Plasmid Description. The luciferase reporter (E/GRE)6TK81LUC consists of multimeric E/GRE binding sites from (E/GRE)4ΔMTVLuc linked to the minimal TK promoter in the pA3LUC reporter plasmid. The modified MMTV promoter from MMTVp206 that incorporates the 5′UTR of v-Ha-ras was inserted into a vector containing a modified ecdysone receptor VgEcR (a gift from R. Evans) to form MMTV-VgEcR.
Cell Culture, DNA Transfection, and Luciferase Assays. Cell culture, DNA transfection, and luciferase assays were performed as previously described (Wantanable et al., 1966). Briefly, 293-derived BOSC cells (293T) were seeded into individual wells of a 24 well plate and maintained in Dulbecco's modified Eagles medium with 10% fetal calf serum and 1% penicillin/streptomycin. Cells were transiently transfected with pVgEcR/RXRα and (E/GRE)6TKLUC via a standard calcium phosphate method. The media was changed after 14 hr and the cells treated with 10 μL of 5 mM β-ecdysone 1 (FIG. 1) in methanol (to furnish a 100 μM final concentration of ecdysteroid). Cells were either left un-illuminated or illuminated for 1 min using an Oriel 200 W Hg arc lamp (model 6283) with a 348 nm filter (Oriel, lot number 51260, 50% internal transmittance at 348 nm and cutoff at <325 nm) to remove short wavelength light and two IR filters to remove heat. Cells were subsequently lysed as previously described and the luciferase assay performed at room temperature using an Autolumat LB 953 (EG & G, Berthold). Luciferase content was measured by calculating the light emitted during 10 sec of the reaction. The values are expressed in arbitrary light units.
Light-Driven Luciferase Expression in Transiently Transfected 293T Cells. We employed a luciferase-based expression system to examine the biological activity of β-ecdysone and its alkylated analog 4. The 293T cell line was transiently transfected to constitutively express EcR/RXR and inducibly express (upon exposure to β-ecdysone) luciferase. Compound 4 was added to the transfected 293T cells, the cell culture subsequently illuminated, and luciferase activity assessed (Table 1). There is little observable luciferase activity with culture media alone. Exposure of the cells to the bioactive β-ecdysone 1 generates a nearly 90-fold induction of luciferase. By contrast, the caged analog 4 furnishes a slight 6-fold induction of activity over that of culture media alone. […] The latter is consistent with our observation that a 1 min photolysis time window converts approximately 60% of the caged derivative 4 into its bioactive counterpart 1. Finally, illumination in the absence of ligand fails to induce luciferase production.

In data set [5] the test system is ecdysone-inducible gene expression system. Particulars: cell-based systems; No et al., 1996; Albanese et al., 2000; cited from earlier work.
Setting [6] is: 293T cells pre-incubated 16 hr with 4, illuminated 1 min.
Setting [7] is: 100 μM ecdysteroid, not illuminated, versus culture media alone.

On to `COc1cc(COC2CC3(C)C(CC2O)C(=O)C=C2C3CCC3(C)C(C(C)(O)C(O)CCC(C)(C)O)CCC23O)c([N+](=O)[O-])cc1OC` (stereo not drawn) [caged β-ecdysone 4], for which the “Luciferase activity relative to maximal activity displayed by β-ecdysone” value in the data set with EcR/RXR [1] (4 + washing (extracellular 4 removed) + 1 min photolysis) is reported as 50%. For the same molecule, the “Post-illumination time at which minimal luciferase activity was first observed” value with EcR/RXR [1] (setting [6]) was 4 h. Besides, the “Time of maximal gene (luciferase) expression after photolysis” value in the data set on EcR/RXR [1] (setting [6]) came to 16 h. Further, the “Photochemical quantum yield φ” value in data set [2] is on record as 0.034. For the same molecule, the “Luciferase expression by immunofluorescence, without illumination” value in the data set on EcR/RXR [3] is listed as “failed to exhibit detectable luciferase expression”. The “Luciferase expression by immunofluorescence after spot illumination” value with EcR/RXR [3] was “spatially discrete luciferase expression is observed”; with EcR/RXR [3] (listed as 4), “Only those regions exposed to UV light display luciferase production”. The “Luciferase expression relative to that displayed by β-ecdysone 1” value with EcR/RXR [4] (293T cells treated with 4, 1 min photolysis) is recorded as “approximately 60%”. In addition, the Fold luciferase induction in the data set with EcR/RXR [4] (setting [7]) is on record as 6 fold; in the data set with EcR/RXR [4] (100 μM ecdysteroid, not illuminated, versus culture media alone, listed as caged β-ecdysome 4), 6.5 ± 0.1 fold; with EcR/RXR [4] (100 μM, 1 min hν (348 nm filter, Hg arc lamp)), 50 ± 4 fold. For the same molecule, the “Activity as inducing agent in the luciferase-based gene expression system (in words)” value in the data set on EcR/RXR [4] was “virtually inactive”; with EcR/RXR [4] (listed as caged ecdysteroid) it was “nearly inactive”.

With `CC(C)CC[C@@H](O)[C@](C)(O)[C@H]1CC[C@@]2(O)C3=CC(=O)[C@]4(O)C[C@@H](O)[C@@H](O)C[C@]4(C)[C@H]3[C@H](O)C[C@]12C` [muristerone 6, muristerone], the “Activity relative to β-ecdysone” value in data set [5] was 1,000 times.

Take `CC(C)CC[C@@H](O)[C@](C)(O)[C@H]1CC[C@@]2(O)C3=CC(=O)[C@@H]4C[C@@H](O)[C@@H](O)C[C@]4(C)[C@H]3CC[C@]12C` [ponasterone A 7, ponasterone A]: in data set [5], the “Activity relative to β-ecdysone” value is 1,000 times.

With `CC(C)(O)CC[C@@H](O)[C@](C)(O)[C@H]1CC[C@@]2(O)C3=CC(=O)[C@@H]4C[C@@H](O)[C@@H](O)C[C@]4(C)[C@H]3CC[C@]12C` [β-ecdysone 1, β-ecdysone, reference compound], the “Luciferase expression by immunofluorescence, without illumination” value is given as “global luciferase expression throughout the cell culture” in the data set on EcR/RXR [3] and “luciferase expression (20% transfection efficiency) was observed throughout the general cell population” in the data set with EcR/RXR [3] (listed as 1). In addition, the Fold luciferase induction is given as 88 ± 9 fold in the data set on EcR/RXR [4] (setting [7]) and ~100 fold in the data set with EcR/RXR [4] (100 μM ecdysteroid, not illuminated, versus culture media alone, listed as β-ecdysone).
